Measurements: EP4342530A1, “SORTILIN MODULATORS” (Insusense ApS, priority 2022, dated 2024)

Legend:
h-Sortilin = target: T1, h-Sortilin (Homo sapiens, UniProt Q99523); experiment: Neurotensin scintillation proximity assay (displacement of [3H]-neurotensin binding); conditions: 150 nM 6his-Sortilin, 5 nM [3H]-Neurotensin; average of at least 2 determinations; read-out: IC50 [3H]Neurotensin SPA
T1 sequence (Q99523 78-831): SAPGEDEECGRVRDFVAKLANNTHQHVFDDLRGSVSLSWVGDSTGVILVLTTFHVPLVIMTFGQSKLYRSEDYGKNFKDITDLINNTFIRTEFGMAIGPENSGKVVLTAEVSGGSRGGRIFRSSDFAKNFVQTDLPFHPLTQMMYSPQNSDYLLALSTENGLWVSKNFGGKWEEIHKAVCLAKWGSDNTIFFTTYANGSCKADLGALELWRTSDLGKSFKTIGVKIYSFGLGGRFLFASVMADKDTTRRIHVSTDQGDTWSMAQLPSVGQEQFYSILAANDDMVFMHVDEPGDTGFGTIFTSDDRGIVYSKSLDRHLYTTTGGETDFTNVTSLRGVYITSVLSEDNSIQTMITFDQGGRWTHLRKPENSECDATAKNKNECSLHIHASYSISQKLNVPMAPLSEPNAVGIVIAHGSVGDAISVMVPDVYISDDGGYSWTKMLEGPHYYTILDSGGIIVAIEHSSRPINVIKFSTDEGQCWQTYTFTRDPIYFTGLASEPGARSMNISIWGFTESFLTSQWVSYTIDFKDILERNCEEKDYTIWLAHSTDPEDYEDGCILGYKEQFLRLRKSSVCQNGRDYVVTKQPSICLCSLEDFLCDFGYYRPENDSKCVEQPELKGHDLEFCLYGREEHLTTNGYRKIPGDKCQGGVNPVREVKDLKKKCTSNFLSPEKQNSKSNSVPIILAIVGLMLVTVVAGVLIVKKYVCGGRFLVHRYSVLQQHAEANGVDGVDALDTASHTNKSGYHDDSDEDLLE
Description: The exemplified compounds of the invention were tested in a Neurotensin (NTS) scintillation proximity assay (SPA). NTS, which is a 13 amino acid neuropeptide, is a sortilin ligand. The IC50 is a measure of the amount of the compound required to inhibit the binding of NTS to sortilin by 50%. The skilled person will recognise that the lower the IC50 value, the less of the compound needed to achieve the desired effect, and as a result, the chances of undesirable off-target effects are reduced.
Compound affinity was determined by measuring the displacement of [3H]-neurotensin binding to h-Sortilin in SPA format. Total volume of 40 µl in 50 mM HEPES pH 7.4 assay buffer containing 100 mM NaCl, 2.0 mM CaCl2, 0.1% BSA and 0.1% Tween-20. Compound pre-incubation for 30 minutes at room temperature with 150 nM of 6his-Sortilin before 5 nM [3H]-Neurotensin and Ni chelate imaging beads (Perkin Elmer) were added, after 6 hours the plate was read on a ViewLux with 360 s exposure time. Dose-response evaluation of compounds was performed with 8 concentrations of drugs (covering 3 decades). IC50 values were calculated by nonlinear regression using the sigmoid concentration-response (variable slope) using CDD Vault software. All values reported are average of at least 2 determinations.

Sortilin [1] = target: T2, Sortilin (Homo sapiens, UniProt Q99523); experiment: Creoptix (GCI) binding kinetics, human Sortilin; conditions: Species Human, screened at 1 µM, 25 degrees Celsius
T2 construct: purchased Bio-Techne Ltd 3154-ST-050
T2 sequence (Q99523 78-755 limits assumed): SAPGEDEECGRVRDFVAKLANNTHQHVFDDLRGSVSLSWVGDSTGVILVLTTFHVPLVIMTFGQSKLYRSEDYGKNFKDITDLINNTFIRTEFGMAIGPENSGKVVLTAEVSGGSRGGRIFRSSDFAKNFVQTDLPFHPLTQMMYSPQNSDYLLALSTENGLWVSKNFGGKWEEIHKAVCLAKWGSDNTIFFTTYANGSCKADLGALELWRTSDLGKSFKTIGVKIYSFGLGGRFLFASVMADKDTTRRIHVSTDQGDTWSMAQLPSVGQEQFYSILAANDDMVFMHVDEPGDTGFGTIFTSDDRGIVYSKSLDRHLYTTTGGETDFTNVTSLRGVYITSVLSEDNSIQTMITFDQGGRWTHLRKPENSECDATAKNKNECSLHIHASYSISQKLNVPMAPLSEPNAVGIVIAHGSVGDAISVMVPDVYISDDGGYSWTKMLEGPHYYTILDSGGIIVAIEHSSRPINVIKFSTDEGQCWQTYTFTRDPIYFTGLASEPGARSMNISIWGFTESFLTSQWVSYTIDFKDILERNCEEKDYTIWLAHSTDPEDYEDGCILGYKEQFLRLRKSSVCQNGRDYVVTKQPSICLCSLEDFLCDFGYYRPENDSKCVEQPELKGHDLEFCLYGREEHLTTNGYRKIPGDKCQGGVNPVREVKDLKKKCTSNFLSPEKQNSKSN
Description: (§1) Creoptix (GCI) method - using SEQ ID NO.4 (Murine sortillin)
(§2) A protein, bound to a surface, is bathed in a solution containing potential ligands giving rise to binding kinetics to generate Kon and Koff rates, as well as a Kd.
(§3) All buffers described were filtered using a 0.2µm filter (Product number: 10300461, Nalgene) and degassed for 15 minutes prior to use.
(§4) A flow cell temperature of 25 degrees Celsius was used throughout the experiment.
(§5) A 4PCH chip was conditioned across all flow cells using 0.2 X concentration running buffer (running buffer composition: 1XHBS-N, pH 7.4, 3.4 mM EDTA, 1% DMSO) using pre-set conditioning wizard (WAVE control software) injecting: 0.1 M borate, 1 M NaCl (pH 9) followed by three start-up injections of 0.2 X running buffer.
(§6) A buffer exchange was performed and 1x running buffer (1XHBS-N, pH 7.4, 3.4 mM EDTA, 1% DMSO) used during the immobilisation procedure: An initial injection of EDC/NHS (mixed in 1:1 ratio) was performed across all 4-flow cells to activate the surface for amine coupling of ligands.
(§7) Recombinant Sortilin aliquots were thawed quickly by hand and centrifuged at 13,300 rpm for 10 minutes. A 10 µg/ml protein solution was then made in pH 5.0 acetate and injected once for 20 minutes over flow-cells 2, 3 and 4 for human, human (flow cells 2 & 3), and mouse Sortilin respectively followed by a 60 second dissociation period.
(§8) A final 7-minute passivation injection of 50 mM tris was used across all flow cells.
(§9) A flow rate of 10 µl/min was used for all conditioning and immobilisation cycles.
(§10) Compounds were screened at 1 µM using the in-built 'intermediate binders' settings: 100 ul/min, 45 s baseline, 25 s association, 300 s dissociation, with blanks every 5th sample and a DMSO correction (1.5 % DMSO at the start and end of the experiment as well as every 20 cycles. An acquisition rate of 10 Hz was used throughout the experiment.
(§11) Compounds were screened at a final assay concentration of 1 µM and a final DMSO concentration was 1 %. To achieve this, compounds were diluted in DMSO from 10 mM stocks to 100 µM (100 x final assay concentration) then diluted 1:100 in running buffer which contained no DMSO to establish a final assay concentration of compound of 1 µM and a final DMSO concentration of 1 % [DMSO].
(§12) Compounds and DMSO were mixed by plate shaking at 1000 rpm for 60 seconds using a Bioshake instrument.
(§13) A flow rate of 100 µl/min was used throughout the experiment.
(§14) Data was evaluated using the RAPID kinetic analysis tool in the GCI WAVE_control software with data fitted using a standard 1:1 kinetic BioModel.

Sortilin [2] = target: T3, Sortilin (Mus musculus, UniProt Q6PHU5); experiment: Creoptix (GCI) binding kinetics, mouse Sortilin; conditions: Species Mouse, screened at 1 µM, 25 degrees Celsius
T3 construct: purchased Bio-Techne Ltd 2934-ST-050
T3 sequence (Q6PHU5 76-753 limits assumed): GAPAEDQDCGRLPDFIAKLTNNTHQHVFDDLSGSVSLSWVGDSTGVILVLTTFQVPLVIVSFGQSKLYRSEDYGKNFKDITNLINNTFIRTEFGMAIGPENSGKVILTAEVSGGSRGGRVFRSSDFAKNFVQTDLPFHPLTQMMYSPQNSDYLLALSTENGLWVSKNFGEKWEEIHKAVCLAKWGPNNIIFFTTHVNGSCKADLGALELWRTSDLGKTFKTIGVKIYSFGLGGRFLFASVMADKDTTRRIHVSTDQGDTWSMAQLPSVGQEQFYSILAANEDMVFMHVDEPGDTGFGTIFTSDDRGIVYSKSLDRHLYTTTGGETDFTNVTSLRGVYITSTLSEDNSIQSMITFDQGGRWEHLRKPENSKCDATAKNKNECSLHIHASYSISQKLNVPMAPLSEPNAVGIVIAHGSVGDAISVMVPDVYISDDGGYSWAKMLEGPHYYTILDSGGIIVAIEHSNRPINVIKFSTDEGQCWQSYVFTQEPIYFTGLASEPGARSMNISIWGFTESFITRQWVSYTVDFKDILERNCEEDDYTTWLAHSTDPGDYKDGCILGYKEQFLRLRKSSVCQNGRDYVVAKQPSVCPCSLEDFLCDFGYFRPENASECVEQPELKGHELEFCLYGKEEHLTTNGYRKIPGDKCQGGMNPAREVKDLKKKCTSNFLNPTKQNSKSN
Description: as §1, §2, §3, §4, §5, §6, §7, §8, §9, §10, §11, §12, §13, §14

Molecule | IC50 (h-Sortilin) | Kd (Sortilin [1]; Form of Compound Free acid) | Kd (Sortilin [2]; Form of Compound Free acid) | Kd (Sortilin [1]; Form of Compound Mesylate salt) | Kd (Sortilin [2]; Form of Compound Mesylate salt) | Kd (Sortilin [1]; Form of Compound HCl salt)
CN1CCc2cc(CN[C@@H](CCC(C)(C)C)C(=O)O)ccc2C1 [Example 10, (S)-5,5-dimethyl-2-(((2-methyl-1,2,3,4-tetrahydroisoquinolin-6-yl)methyl)amino)hexanoic acid] | 640 nM | 200 nM | 241 nM | – | – | –
CC(C)(C)CC[C@H](NCc1ccc2c(c1)CCCN2)C(=O)O [Example 16, (2S)-5,5-dimethyl-2-{[(1,2,3,4-tetrahydroquinolin-6-yl)methyl]amino}hexanoic acid] | 570 nM | 255 nM | 299 nM | – | – | –
CC(C)(C)CC[C@H](NCc1ccc2c(c1)CNCC2)C(=O)O [Example 18, (2S)-5,5-dimethyl-2-{[(1,2,3,4-tetrahydroisoquinolin-7-yl)methyl]amino}hexanoic acid] | 500 nM | 1420 nM | 2280 nM | – | – | –
CN1CCOc2cc(CN[C@@H](CCC(C)(C)C)C(=O)O)ccc21 [Example 19, (S)-5,5-dimethyl-2-(((4-methyl-3,4-dihydro-2H-benzo[b][1,4]oxazin-7-yl)methyl)amino)hexanoic acid] | 660 nM | 3720 nM | 3180 nM | – | – | –
CN1CCOc2ccc(CN[C@@H](CCC(C)(C)C)C(=O)O)cc21 [Example 30, (2S)-5,5-dimethyl-2-{[(4-methyl-3,4-dihydro-2H-1,4-benzoxazin-6-yl)methyl]amino}hexanoic acid] | 350 nM | 5070 nM | 7600 nM | – | – | –
C[C@@H](N[C@@H](CCC(C)(C)C)C(=O)O)c1ccc2c(c1)OCCO2 [Example 51] | 280 nM | 181 nM | – | – | – | –
C[C@@H](N[C@@H](CCC(C)(C)C)C(=O)O)c1ccc2c(c1)OCO2 [Example 54] | 380 nM | 105 nM | – | – | – | –
CC(C)(C)CC[C@H](N[C@H](c1ccc2c(c1)OCCC2)C(F)F)C(=O)O [Example 56] | 310 nM | 696 nM | – | – | – | –
C[C@@H](N[C@@H](CCC(C)(C)C)C(=O)O)c1ccc2c(c1)NCCC2 [Example 58] | 310 nM | 67 nM | 70.3 nM | – | – | –
C[C@H](N[C@@H](CCC(C)(C)C)C(=O)O)c1ccc2c(c1)CCOC2 [Example 59] | 320 nM | – | – | 218 nM | 204 nM | –
C[C@H](N[C@@H](CCC(C)(C)C)C(=O)O)c1ccc2c(c1)OCCO2 [Example 61] | 350 nM | 144 nM | – | – | – | –
CC(C)(C)CC[C@H](NCc1ccc2c(c1)OCO2)C(=O)O [Example 68] | 860 nM | 163 nM | – | – | – | –
C[C@H](N[C@@H](CCC(C)(C)C)C(=O)O)c1ccc2c(c1)OCO2 [Example 70] | 530 nM | 133 nM | 116 nM | – | – | –
CC(C)(C)CC[C@H](N[C@H](c1ccc2c(c1)CCCC2)C(F)F)C(=O)O [Example 71] | 590 nM | 193 nM | – | – | – | –
CC(C)(C)CC[C@H](NCc1cccc2c1CCCO2)C(=O)O [Example 72] | 1080 nM | 613 nM | – | – | – | –
CC(C)(C)CC[C@H](NCc1ccnc(Oc2ccccc2)c1)C(=O)O [Example 76] | 230 nM | 58.3 nM | – | – | – | –
(2S)-5,5-dimethyl-2-{[(5,6,7,8-tetrahydronaphthalen-2-yl)methyl]amino}hexanoic acid [Example 4] | 120 nM | 40.9 nM | – | 42.5 nM | – | 51.7 nM
